Test results taken from US10596166B2, “Combination composition comprising huperzine” (priority 2015, dated 2020).

System: primary cortical neurons injured by glutamate
Assay: glutamate toxicity on primary cortical neurons (neuron survival, neurite network)
Assay type: cell-based, rat
Conditions: for effect on glutamate toxicity: at the lowest concentrations; for non-active concentration: see example 2
Method: Rat cortical neurons were cultured as described by Singer et al., 1999 [J. Neuroscience 19(7), 2455-2463] and Callizot et al. 2013 [J. Neurosc. Res. 91(5), 706-716].
Briefly, pregnant females (Wistar; JanvierLabs, St Berthevin, France) at 15 days of gestation were killed by cervical dislocation. Foetuses were collected and immediately placed in ice-cold L15 Leibovitz medium (Pan Biotech, Aidenbach, Germany, Batch: 4120413) with a 2% penicillin (10,000 U/ml) and streptomycin (10 mg/ml) solution (PS; Pan Biotech, Aidenbach, Germany) and 1% bovine serum albumin (BSA; Pan Biotech, Aidenbach, Germany). Cortex was treated for 20 min at 37° C. with a trypsin-EDTA (Pan Biotech, Aidenbach, Germany) solution at a final concentration of 0.05% trypsin and 0.02% EDTA. The dissociation was stopped by addition of Dulbecco's modified Eagle's medium (DMEM) with 4.5 g/liter of glucose (Pan Biotech, Aidenbach, Germany), containing DNAse I grade II (final concentration 0.5 mg/ml; Pan Biotech, Germany) and 10% fetal calf serum (FCS; Invitrogen, Cergy Pointoise, France). Cells were mechanically dissociated by three forced passages through the tip of a 10-ml pipette. Cells were then centrifuged at 515 g for 10 min at 4° C. The supernatant was discarded, and the pellet was resuspended in a defined culture medium consisting of Neurobasal medium (Invitrogen, Cergy Pointoise, France) with a 2% solution of B27 supplement (Invitrogen, Cergy Pointoise, France), 2 mmol/liter of L-glutamine (Pan Biotech, Aidenbach, Germany), 2% of PS solution, and 10 ng/ml of brain-derived neurotrophic factor (BDNF; Pan Biotech, Aidenbach, Germany). Viable cells were counted in a Neubauer cytometer, using the trypan blue exclusion test. The cells were seeded at a density of 30,000 per well in 96-well plates precoated with poly-L-lysine (Corning Biocoat, Tewksbury, USA) and were cultured at 37° C. in an air (95%)-CO2 (5%) incubator. The medium was changed every 2 days.
On day 13, the cultures were exposed for 20 minutes to glutamate 40 μM in the absence or presence of Huperzia serrata extracts. Then the cells were washed out and new fresh medium containing or not Huperzia serrata extracts was added for another 48 hours.
The cells were then fixed by a cold solution ethanol/acetic acid (95:5 v/v) for 5 minutes at −20° C. After permeabilization with 0.1% of saponin (Sigma), cells were incubated for 2 hours with mouse monoclonal antibody against microtubule-associated-protein 2 (MAP 2; Sigma) at dilution of 1/400 in PBS containing 1% foetal calf serum (Invitrogen) and 0.1% of saponin.
Neuron survival assessment: For each condition 6 wells were assessed, 20 pictures per well were taken using InCell Analyzer™ 1000 (GE Healthcare) with 20× magnification to assess cell bodies (MAP 2 staining). Analysis of picture was done using Developer software (GE Healthcare), the number of neurons per picture was recorded. A mean of neuron number of the 20 pictures was automatically calculated per well, then one data was provided per well (total of 6 raw data were provided per condition).
Neurite network length assessment: For each condition 6 wells were assessed, 20 pictures per well were taken using InCell Analyzer™ 1000 with 20× magnification (20 pictures at X20 representing ˜80% of the total well surface), to assess MAP-2 staining. Analysis of picture was done using Developer software, the total neurite length per picture was recorded. A mean neurite length of the 20 pictures was automatically calculated per well, then one data was provided per well (total of 6 raw data were provided per condition).
The protocol used in these assays is the same as described in example 1. After 13 days of neuron culture, the candidate compounds were solved in DMSO and diluted in culture medium. […]

## O=C(O)/C=C/c1ccc(O)c(O)c1 [CA, caffeic acid]
  effect on glutamate toxicity: little or no effect
Glutamate 40 μM, 20 min, 1 μM and 5 μM
  neurite network: moderate effect
Glutamate 40 μM, 20 min
  non-active concentration: 500 pM

## COc1cc(/C=C/C(=O)O)ccc1O [FA, ferulic acid]
  effect on glutamate toxicity: little or no effect
Glutamate 40 μM, 20 min, 10 μM and 100 μM
  neurite network: significant protective effect
Glutamate 40 μM, 20 min
  non-active concentration: 10000 pM

## C/C=C1\[C@H]2C=C(C)C[C@]1(N)c1ccc(=O)[nH]c1C2 [HA, huperzine A, reference compound]
  effect on glutamate toxicity: little or no effect
Glutamate 40 μM, 20 min
  lowest active dose: 1 nM
  non-active concentration: 10 pM
Glutamate 40 μM, 20 min, 10 nM
  neurite network: > 90%
  neuron survival: 94%
